We go through two compounds from US7851437B2, “Drug conjugates and their use for treating cancer, an autoimmune disease or an infectious disease” (Seattle Genetics Inc., priority 2002, dated 2010).

Molecules are shown by their SMILES. *1 amine or outer side, *2 acyl side, *3 side chain or, on linkers, in order; H or OH if unused. Where a SMILES comes first, the peptide text is derived from it. [ ]: non-standard residue; d: D form. The star is where a group is joined. Dolaproine = CO[C@@H]([C@@H]1CCCN1)[C@@H](C)C(=O)O; Phenylenediamine(1,4) = c1cc(N[*:2])ccc1N[*:1]; Dil = CC[C@H](C)[C@H](NC)[C@@H](CC(=O)O)OC; NMe2Val = CC(C)[C@@H](C(=O)*)N(C)C; X1 = C[C@@H](N*)[C@@H](O)c1ccccc1; NMeV = CN[C@H](C(=O)O)C(C)C

The subject of this series is H3396 human breast carcinoma cells (cBR96 antigen positive, cAC10 antigen negative). Kind of series: In vitro cytotoxicity, Alamar Blue assay, H3396 cells. The format is cell-based. To be noted: exposure for 1 hour. An excerpt:
The cell lines used were H3396 human breast carcinoma (cBR96 antigen positive, cAC10 antigen negative), HCT-116 human colorectal carcinoma (cBR96 and cAC10 antigen negative), and Karpas human anaplastic large cell lymphoma (ALCL) (cBR96 antigen negative, cAC10 antigen positive). These cell lines are available from ATCC. CD30-positive Hodgkin's Disease (HD) cell line L540 and the ALCL cell line Karpas 299 were obtained from the Deutsche Sammlung von Mikroorganism and Zellkulturen GmbH (Braunschweig, Germany). L540cy, a derivative of the HD line L540 adapted to xenograft growth, was provided by Dr. Phil Thorpe (U of Texas Southwestern Medical Center, Dallas, Tex.). Cell lines were grown in RPMI-1640 media (Life Technologies Inc., Gaithersburg, Md.) supplemented with 10% fetal bovine serum.H3396 cells in RPMI containing 10% fetal bovine serum (referred to as medium) were plated in 96-well plates at approximately 3,000-10,000 cells/well and allowed to adhere overnight. The non-adherent Karpas cell line was plated out at approximately 10,000 cells/well at the initiation of the assay. Various concentrations of illustrative Compounds of the Invention in medium were added in triplicate, and after the times indicated IN FIGS. 1-7, the medium was removed, and the cells were washed with fresh medium three times. After a 96 hour incubation period at 37° C., Alamar Blue was added and cell viability was determined 4 hours later as described by Ahmed S A, Gogal R M Jr, Walsh J E., J. Immunol. Methods, 170, 211-224, 1994.
(The colour change of resazurin is a common sign of viable cells or microbes.)

The mark [1] stands for this setting: concentrations between 0.01 mM and 1.0 mM.

On to `CC[C@H](C)[C@@H]([C@@H](CC(=O)N1CCC[C@H]1[C@H](OC)[C@@H](C)C(=O)N[C@@H](Cc1ccccc1)C(=O)Nc1ccc(N)cc1)OC)N(C)C(=O)[C@@H](NC(=O)[C@H](C(C)C)N(C)C)C(C)C` [Compound 53] (NMe2Val-V[Dil][Dolaproine]F-{Phenylenediamine(1,4)}), for which the “cytotoxicity (FIG. 1)” value is recorded as “substantially equal cytotoxicity” under setting [1] and “more cytotoxic than Compound 49” (concentrations of up to 0.01 mM).

For `CC[C@H](C)[C@@H]([C@@H](CC(=O)N1CCC[C@H]1[C@H](OC)[C@@H](C)C(=O)N[C@H](C)[C@@H](O)c1ccccc1)OC)N(C)C(=O)[C@@H](NC(=O)[C@@H](NC)C(C)C)C(C)C` [Compound 49] (H-[NMeV]V[Dil][Dolaproine]-X1), the “cytotoxicity (FIG. 1)” value under setting [1] is recorded as “substantially equal cytotoxicity”.
